Values of other authors in patent US20150147378A1, “COPOLYMER-XEROGEL NANOCOMPOSITES USEFUL FOR DRUG DELIVERY” (RUTGERS, THE STATE UNIVERSITY OF NEW JERSY, priority 2008, published 2015).

octanol/water partition coefficient, log P: 2.72
Compound: CO[C@H]1/C=C/O[C@@]2(C)Oc3c(C)c(O)c4c(O)c(c(/C=N/N5CCN(C)CC5)c(O)c4c3C2=O)NC(=O)/C(C)=C\C=C\[C@H](C)[C@H](O)[C@@H](C)[C@@H](O)[C@@H](C)[C@H](OC(C)=O)[C@@H]1C [rifampicin]
